# Assay results taken from PMC9958262, “Endocannabinoids enhance hKV7.1/KCNE1 channel function and shorten the cardiac action potential and QT interval” (eBioMedicine, 2023).
# Key:
# Type in all cases: cell-based
# [1] = molecular target: T1, hKV7.1/KCNE1 (KV7.1) (Homo sapiens, UniProt P51787); assay: two-electrode voltage clamp in Xenopus oocytes, V50 shift at […]
# T1 construct: gene KCNQ1; with KCNE1
# [2] = molecular target: T1, hKV7.1/KCNE1 (KV7.1); assay: two-electrode voltage clamp in Xenopus oocytes, V50 shift; mutagenesis (R228Q abolishes V50 shift); also active on KV7.[…] alone (EC50 […])
# [3] = molecular target: T1, hKV7.1/KCNE1 (KV7.1); assay: two-electrode voltage clamp in Xenopus oocytes, V50 shift at […] (moderate effect)
# [4] = molecular target: T1, hKV7.1/KCNE1 (KV7.1); assay: two-electrode voltage clamp in Xenopus oocytes, V50 shift (current amplitude EC50 […]); site mutagenesis supported by MD
# [5] = molecular target: T1, hKV7.1/KCNE1 (KV7.1); assay: two-electrode voltage clamp in Xenopus oocytes, V50 shift
# T1 sequence (P51787 whole entry): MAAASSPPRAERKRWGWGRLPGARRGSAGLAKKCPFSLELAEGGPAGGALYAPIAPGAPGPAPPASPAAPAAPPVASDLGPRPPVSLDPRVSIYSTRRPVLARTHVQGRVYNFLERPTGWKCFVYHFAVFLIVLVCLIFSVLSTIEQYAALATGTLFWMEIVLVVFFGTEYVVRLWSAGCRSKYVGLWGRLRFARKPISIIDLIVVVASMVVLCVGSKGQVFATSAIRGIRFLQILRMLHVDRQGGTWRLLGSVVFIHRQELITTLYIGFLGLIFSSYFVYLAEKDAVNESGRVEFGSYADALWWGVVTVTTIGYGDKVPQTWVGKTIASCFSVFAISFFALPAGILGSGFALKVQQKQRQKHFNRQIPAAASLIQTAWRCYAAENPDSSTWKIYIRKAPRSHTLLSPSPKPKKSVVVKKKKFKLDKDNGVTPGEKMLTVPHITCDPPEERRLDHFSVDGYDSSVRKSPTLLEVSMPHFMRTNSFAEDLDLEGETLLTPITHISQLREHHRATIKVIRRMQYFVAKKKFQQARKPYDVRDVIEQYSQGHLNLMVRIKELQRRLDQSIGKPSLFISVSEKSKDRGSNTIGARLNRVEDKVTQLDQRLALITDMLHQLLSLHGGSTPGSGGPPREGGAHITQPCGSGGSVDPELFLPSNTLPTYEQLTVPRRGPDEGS
smiles,measurement,setting,value
CCCCC/C=C\C/C=C\C/C=C\C/C=C\CCCC(=O)N[C@H](CO)C(=O)O [ARA-D-S],ΔV50 (mV),[1],−29.0 mV
CCCCC/C=C\C/C=C\C/C=C\C/C=C\CCCC(=O)N[C@@H](C)C(=O)O [NALA],ΔV50 (mV),[1],−22.2 mV
CCCCC/C=C\C/C=C\C/C=C\C/C=C\CCCC(=O)N[C@@H](CO)C(=O)O [ARA-S],EC50,[2],9 µM
CCCCC/C=C\C/C=C\C/C=C\C/C=C\CCCC(=O)NCCCC(=O)O [NAGABA],ΔV50 (mV),[3],−6.7 mV
CCCCC/C=C\C/C=C\C/C=C\C/C=C\CCCC(=O)NCC(=O)O [NAGly],ΔV50 (mV),[1],−25.5 mV
CCCCC/C=C\C/C=C\CCCCCCCC(=O)NC(CO)C(=O)O (stereo not shown) [LIN-S],EC50,[4],12 µM
CC/C=C\C/C=C\C/C=C\C/C=C\C/C=C\C/C=C\CCC(=O)NC(CO)C(=O)O (stereo not shown) [DOC-S],EC50,[5],5 µM
